# Assay results from patent US7230029B2, “Fatty acid analogues for the treatment of proliferative skin disorders” (Thia Medica AS, priority 2000, dated 2007).
# Legend:
# NHK cells = test: Viability/proliferation by modified MTT assay; assay type: cell-based, human
# Protocol: (§1) Normal adult human epidermal keratinocytes were isolated from human skin obtained after plastic surgery. First passage keratinocytes were grown in serum-free KGM (GIBCO BRL/Life Technologies, Inc.) and replated in 75 cm^2 culture flask or in 96-well microtiterplates preheated at 37° C. at a density of 3500 cells/well. Cells were incubated in a humidified atmosphere of 5% CO2 at 37° C. When cells reached 40% confluence they were treated with growth medium containing selective PPAR ligands (either alone or in combinations as indicated), tetradecylthioacetic acid (TTA) or 1,2 mM Ca^2+. Wy14643 was obtained from Calbiochem, BRL49653 was kindly provided by J. Fleckner, Novo Nordisk), L165041 was kindly provided by D. E. Moller (Merck Research Laboratories, Rahway, N.J.). TTA was manufactured in accordance with example 1. Medium was changed every day. For differentiation, keratinocytes at 40% confluence (day 0) were treated with 1,2 mM CaCl2. Medium was changed every other day. […]
# Viability/proliferation was measured by a modification of the MTT assay introduced by Mosmann T (J Immunol Methods 65:55–63, 1983). […] The amount of formazan was quantified in an ELISA-reader at 540 nm. […]
# (§2) Differentiation of keratinocytes is correlated with an increase in cell size. […] In parallel the expression of Tg-1 was monitored using an ELISA-based assay (FIG. 3b).
# Inv [1] = test: Inv expression by indirect immunofluorescence microscopy; assay type: cell-based, human
# Excerpt: (§3) In addition, expression of Inv and Tg-1 was examined by indirect immunofluorescence microscopy (FIG. 3).
# CD36/FAT = CD36/FAT mRNA expression in NHK treated with PPAR activators and TTA; assay type: cell-based, human; settings: NHK treated over a period of three days
# Protocol: (§4) Normal adult human epidermal keratinocytes were isolated from human skin obtained after plastic surgery. First passage keratinocytes were grown in serum-free KGM (GIBCO BRL/Life Technologies, Inc.) and replated in 75 cm^2 culture flask or in 96-well microtiterplates preheated at 37° C. at a density of 3500 cells/well. Cells were incubated in a humidified atmosphere of 5% CO2 at 37° C. When cells reached 40% confluence they were treated with growth medium containing selective PPAR ligands (either alone or in combinations as indicated), tetradecylthioacetic acid (TTA) or 1,2 mM Ca^2+. Wy14643 was obtained from Calbiochem, BRL49653 was kindly provided by J. Fleckner, Novo Nordisk), L165041 was kindly provided by D. E. Moller (Merck Research Laboratories, Rahway, N.J.). TTA was manufactured in accordance with example 1. Medium was changed every day. For differentiation, keratinocytes at 40% confluence (day 0) were treated with 1,2 mM CaCl2. Medium was changed every other day. HaCaT cells were obtained from L. Aarenstrup (Danish Cancer Society, Denmark). HaCaT cells were cultured in Dulbecco's modified Eagle's Medium (DMEM) with 10% fetal calf serum (FCS) and antibiotics (100 u/ml penicillin, 1 mg/ml streptomycin sulphate) in a humidified atmosphere of 5% CO2 at 37° C. Medium was changed every other day.
# (§5) To evaluate how TTA and the various PPAR activators affected expression of a known PPAR responsive gene and differentiation of keratinocytes, we first measured the mRNA levels of CD36/FAT and the two differentiation markers, Inv and Tg-1 in NHK treated with PPAR selective activators and TTA over a period of three days (FIG. 1a).
# Tg-1 = Tg-1 expression by indirect immunofluorescence microscopy; assay type: cell-based, human
# Excerpt: as §3
# [2] = test system: transglutaminase type 1 (Tg-1); test: Tg-1 expression by ELISA; assay type: cell-based, human; settings: normalized to cell number
# Protocol: as §1
# Cells were subjected to two freeze-thaw cycles and transglutaminase type 1 (Tg-1) was determined by ELISA. […] The amount of transglutaminase was measured by quantifying the OPD reaction with an ELISA-reader at 490 nm and subtracting background at 650 nm. […]
# as §2
# Inv [3] = test: Inv mRNA expression in NHK (RT-PCR); assay type: cell-based, human; settings: NHK treated over a period of three days
# Protocol: (§6) Normal adult human epidermal keratinocytes were isolated from human skin obtained after plastic surgery. First passage keratinocytes were grown in serum-free KGM (GIBCO BRL/Life Technologies, Inc.) and replated in 75 cm^2 culture flask or in 96-well microtiterplates preheated at 37° C. at a density of 3500 cells/well. Cells were incubated in a humidified atmosphere of 5% CO2 at 37° C. When cells reached 40% confluence they were treated with growth medium containing selective PPAR ligands (either alone or in combinations as indicated), tetradecylthioacetic acid (TTA) or 1,2 mM Ca^2+. Wy14643 was obtained from Calbiochem, BRL49653 was kindly provided by J. Fleckner, Novo Nordisk), L165041 was kindly provided by D. E. Moller (Merck Research Laboratories, Rahway, N.J.). TTA was manufactured in accordance with example 1. Medium was changed every day. For differentiation, keratinocytes at 40% confluence (day 0) were treated with 1,2 mM CaCl2. Medium was changed every other day. HaCaT cells were obtained from L. Aarenstrup (Danish Cancer Society, Denmark). […]
# as §5
# Inv [4] = test: Inv protein expression in NHK by Western blotting; assay type: cell-based, human
# Protocol: as §4
# human keratinocytes = test: Keratinocyte differentiation marker gene expression (summary statements); assay type: cell-based
# Protocol: In the present study we have in detail analyzed the expression of the PPARs during ex vivo differentiation of human keratinocytes, in isolated basal and suprabasal cells, and in sections of human skin. […] All three PPAR subtype selective ligands either alone or in combination only modestly effected keratinocyte proliferation.
# as §6
SMILES,inhibition of NHK cell proliferation (NHK cells),Inv expression (Inv [1]),expression of CD36/FAT mRNA (CD36/FAT),Tg-1 expression (Tg-1),Tg-1 expression [2],Inv mRNA expression (Inv [3]),Inv protein expression (Inv [4]),keratinocyte differentiation marker gene expression (human keratinocytes)
[Ca+2].[Cl-].[Cl-] [CaCl2],only marginal,comparable levels of expression,did not induce expression of CD36/FAT,comparable levels of expression,significantly induced Tg-1 expression,–,–,–
CCCc1c(OCCCOc2ccc(OCC(=O)O)cc2)ccc(C(C)=O)c1O [L165041],–,in a dose-dependent manner induced Inv expression,induced a significant dose-dependent expression of CD36,–,–,dose-dependent induction of Inv mRNA expression,dose-dependent induction of Inv protein,induced in a dose-dependent manner expression of involucrin
Cc1cccc(Nc2cc(Cl)nc(SCC(=O)O)n2)c1C [Wy14643],–,–,induced expression of CD36/FAT,–,–,modest induction of Inv mRNA expression,–,–
